Measurements: patent US20090318493A1 (Roche Palo Alto LLC, priority 2008, published 2009)
Where two headings read alike, the source gives them in different places.

Columns and labels:
Assay type in all cases: binding
hSERT transporter = target: T1, hSERT transporter (Homo sapiens, UniProt P31645); assay: Human serotonin transporter (hSERT) scintillation proximity assay, competition with [3H]-Citalopram
T1 construct: expressed in transfected cells; membranes prepared
Description: Screening for Human Serotonin Transporter (hSERT) Antagonists Using a Scintillation Proximity Assay (SPA)
The screening assay of this example was used to determine the affinity of ligands at the hSERT transporter by competition with [^3H]-Citalopram.
Scintillation Proximity Assay (SPA) works by bringing radioligand within close proximity to the bead's scintillant to stimulate light emission. In this assay, the receptor-containing membranes were pre-coupled to the SPA beads and the binding of the appropriate radioligand to the transporter was measured. The light emission was proportional to the amount of bound radioligand. Unbound radioligand produced no signal as a result of distant proximity to scintillant (lack of energy transfer).
Cells are released from culture flasks using PBS for 1-2 minutes. The cells were subsequently centrifuged at 1000 g's for 5 minutes and resuspended in PBS prior to being used in the membrane preparation.
(§1) Cell membranes were prepared using a membrane preparation buffer of 50 mM TRIS (pH 7.4). Cell membranes were prepared from a single cube (7.5×10^9 cells total). Cells were homogenized using a Polytron (setting medium for a 4 second burst). The homogenate was then centrifuged at 48,000×g for 15 minutes, the supernatant subsequently removed and discarded, and the pellet resuspended with fresh buffer. After a second centrifugation, the pellet was re-homogenized and brought to a final volume determined during the assay. Typically, membrane portions were aliquoted in 3 mg/ml (w:v). and stored at −80° C.
Compounds of the invention were diluted from 10 mM to 0.1 nM FAC (10 point curves, whole log/half log dilutions) via a Beckman Biomek 2000 using a serial dilution protocol. The test compounds were then transferred (20 μl/well) and the [^3H]-Citalopram radioligand was added at 50 μl/well. Membrane and beads were prepared to a ratio of 10 μg: 0.7 mg, with 0.7 mg PVT-WGA Amersham beads (Cat# RPQ0282V) added per well. 130 μl of the membrane: bead mixture was added to the assay plate.
The % inhibition was calculated for each compound tested [(Compound counts per minute (CPM) at maximum concentration-Non-Specific CPM)/Total CPM*100].
(§2) where max=total binding, min=non specific binding, x=concentration (M) of the tested compound and n=Hill slope. The inhibition dissociation constant (Ki) of each compound was determined according to the method of Cheng-Prusoff and then converted into negative logarithm (pKi) of the Ki.

hDAT = target: T2, hDAT (Homo sapiens, UniProt Q01959); assay: Human dopamine transporter scintillation proximity assay, competition with [3H]-Vanoxerine
T2 construct: expressed in transfected cells; plated whole cells
Protocol: This assay was used to determine the affinity of ligands for the dopamine transporter by competition with [^3H]-Vanoxerine.
Cells were plated four hours prior to experiment by placing approximately 30,000 cells per well (in PBS) on white, opaque Cell-Tak coated 96 well plates. Extra buffer was apriated from the cell plates using an ELx405 plate washer.
Compounds of the invention were diluted from 10 mM to 0.1 nM FAC (10 point curves, whole log/half log dilutions) via a Beckman Biomek 2000 using a 10-point dilution protocol. The mixtures were allowed to stand at room temperature for 30 minutes, and were then counted on a Packard TopCount LCS, a generic SPA counting protocol settings, Count Time (min.): 0.40, Background Subtract: none, Half-Life Correction: none, Quench Indicator: tSIS, Platemap blank subtraction: none, Cross talk reduction: Off).
The % inhibition was calculated for each compound tested [(Compound CPM at maximum concentration-Non-Specific CPM)/Total CPM*100].
as §2

hNET transporter = target: T3, hNET transporter (Homo sapiens, UniProt P23975); assay: Human norepinephrine transporter (hNET) scintillation proximity assay, competition with [3H]-Nisoxetine
T3 construct: expressed in transfected cells; membranes prepared
Protocol: This assay was used to determine the affinity of ligands for the hNET transporter by competition with [^3H]-Nisoxetine. As in the hSERT assay of the above example, receptor-containing membranes were pre-coupled to the SPA beads and the binding of the appropriate radioligand to the transporter was measured. The light emission was proportional to the amount of bound radioligand, with unbound radioligand producing no signal.
HEK-293 cells (Tatsumi et al., Eur. J. Pharmacol. 1997, 30, 249-258) stably expressing recombinant hNET (Clone: HEK-hNET #2) were maintained with media (DMEM hi glucose with 10% FBS, 300 μg/ml G418 and 2 mM L-Glutamine) and incubated at 37° C. with 5% CO2. Cells were released from culture flasks using PBS for 1-2 minutes. The cells were subsequently centrifuged at 1000 g's for 5 minutes and resuspended in PBS prior to being used in the membrane preparation.
as §1, with “(7.5×10^9cells” for “(7.5×10^9 cells”, “3-6 mg/mil” for “3 mg/ml”
^3[H] […] Compounds of the invention were diluted from 10 mM to 0.1 nM FAC (10 point curves, whole log /half log dilutions) via a Beckman Biomek 2000 using a serial dilution protocol. The test compounds were then transferred (20 μl/well) and the radioligand was added at 50 μl/well. Membrane and beads were prepared to a ratio of 10 μg: 0.7 mg, with 0.7 mg PVT-WGA Amersham beads (Cat# RPQ0282V) added per well. 130 μl of the membrane: bead mixture was added to the assay plate. The mixtures were allowed to stand at room temperature for one hour, and were then counted on a Packard TopCount LCS, a generic SPA counting protocol settings (Energy Range: Low, Efficiency Mode: Normal, Region A: 1.50-35.00, Region B: 1.50-256.00, Count Time (min.): 0.40, Background Subtract: none, Half-Life Correction: no, Quench Indicator: tSIS, Platemap blank subtraction: No, Cross talk reduction: Off).
The % inhibition was calculated for each compound tested [(Compound CPM at maximum concentration-Non-Specific CPM)/Total CPM*100]. The concentration producing 50% inhibition (IC50) was determined using an iterative non-linear curve fitting technique with Activity Base/Xlfit using the following equation:
as §2

[1] = Table 1, read-out: pIC50 DAT (converted)
[2] = Table 1, read-out: pIC50 SERT (converted)
[3] = Table 1, read-out: pIC50 NET (converted)

T3 sequence (P23975 whole entry): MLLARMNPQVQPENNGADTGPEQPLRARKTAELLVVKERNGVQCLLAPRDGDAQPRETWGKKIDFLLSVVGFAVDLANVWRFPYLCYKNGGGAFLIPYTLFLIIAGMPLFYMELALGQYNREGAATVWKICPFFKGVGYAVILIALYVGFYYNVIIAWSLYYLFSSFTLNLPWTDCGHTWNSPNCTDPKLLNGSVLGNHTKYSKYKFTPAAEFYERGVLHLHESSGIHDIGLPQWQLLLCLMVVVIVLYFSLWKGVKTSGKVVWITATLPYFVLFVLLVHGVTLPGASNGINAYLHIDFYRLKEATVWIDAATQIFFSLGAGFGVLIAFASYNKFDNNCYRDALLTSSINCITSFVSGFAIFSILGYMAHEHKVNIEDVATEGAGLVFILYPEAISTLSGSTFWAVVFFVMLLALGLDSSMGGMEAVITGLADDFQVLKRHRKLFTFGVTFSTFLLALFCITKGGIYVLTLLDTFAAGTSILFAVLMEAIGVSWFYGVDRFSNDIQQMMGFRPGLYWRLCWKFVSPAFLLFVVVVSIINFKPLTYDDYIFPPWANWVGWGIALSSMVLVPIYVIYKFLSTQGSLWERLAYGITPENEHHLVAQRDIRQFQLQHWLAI
T1 sequence (P31645 whole entry): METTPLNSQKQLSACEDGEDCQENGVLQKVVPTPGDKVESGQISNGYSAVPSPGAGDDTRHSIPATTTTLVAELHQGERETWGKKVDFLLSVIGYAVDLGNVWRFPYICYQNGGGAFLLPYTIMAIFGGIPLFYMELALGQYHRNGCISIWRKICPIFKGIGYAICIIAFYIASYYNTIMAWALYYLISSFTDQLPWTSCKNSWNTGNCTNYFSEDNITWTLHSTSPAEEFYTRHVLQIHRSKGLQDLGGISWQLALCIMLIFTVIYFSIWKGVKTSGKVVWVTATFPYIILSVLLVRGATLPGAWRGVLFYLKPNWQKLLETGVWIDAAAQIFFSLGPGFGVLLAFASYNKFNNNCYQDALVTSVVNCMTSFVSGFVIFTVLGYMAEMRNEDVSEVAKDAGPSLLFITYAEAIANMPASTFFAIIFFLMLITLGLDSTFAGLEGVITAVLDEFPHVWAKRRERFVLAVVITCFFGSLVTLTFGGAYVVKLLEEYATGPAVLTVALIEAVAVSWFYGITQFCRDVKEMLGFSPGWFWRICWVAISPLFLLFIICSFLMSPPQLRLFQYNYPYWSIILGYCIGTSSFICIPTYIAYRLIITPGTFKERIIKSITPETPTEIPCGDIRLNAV
T2 sequence (Q01959 whole entry): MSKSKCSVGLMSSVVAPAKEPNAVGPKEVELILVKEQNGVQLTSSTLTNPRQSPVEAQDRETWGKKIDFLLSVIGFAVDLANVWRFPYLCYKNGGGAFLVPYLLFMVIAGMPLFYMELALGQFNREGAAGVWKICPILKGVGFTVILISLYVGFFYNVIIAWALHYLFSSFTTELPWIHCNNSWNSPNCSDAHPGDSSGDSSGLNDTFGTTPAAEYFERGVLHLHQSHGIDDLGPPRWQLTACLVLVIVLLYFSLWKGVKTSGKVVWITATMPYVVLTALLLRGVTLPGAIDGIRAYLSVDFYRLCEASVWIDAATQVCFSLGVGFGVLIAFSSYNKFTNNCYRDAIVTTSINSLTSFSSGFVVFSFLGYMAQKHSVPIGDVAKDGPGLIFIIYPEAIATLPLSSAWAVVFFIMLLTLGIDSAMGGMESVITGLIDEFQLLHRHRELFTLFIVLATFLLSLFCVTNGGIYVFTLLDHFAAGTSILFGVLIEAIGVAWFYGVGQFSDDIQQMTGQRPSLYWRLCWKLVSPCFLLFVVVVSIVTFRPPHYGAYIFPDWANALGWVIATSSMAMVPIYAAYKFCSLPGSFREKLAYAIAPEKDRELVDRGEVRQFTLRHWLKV

Row | SMILES | IC50 (hSERT transporter) | IC50 (hDAT; [1]) | IC50 (hNET transporter) | IC50 (hSERT transporter; [2]) | IC50 (hNET transporter; [3]) | IC50 (hDAT)
1 | CC(C)CCC1(C(=O)c2ccc(Cl)c(Oc3ccccc3)c2)CCNC1 (stereo not drawn) [Compound 12] | 43.7 nM | 1480 nM | 12 nM |  |  | 
2 | CCCC1(C(=O)c2ccc(Cl)c(Sc3ccccc3)c2)CCNC1 (stereo not drawn) [Compound 15, (4-Chloro-3-phenylsulfanyl-phenyl)-(3-propyl-pyrrolidin-3-yl)-methanone] | 34.7 nM | 110 nM | 87.1 nM |  |  | 
3 | CCCC1(C(=O)c2ccc(Cl)c(S(=O)(=O)c3ccccc3)c2)CCNC1 (stereo not drawn) [Compound 16, (3-Benzenesulfonyl-4-chloro-phenyl)-(3-propyl-pyrrolidin-3-yl)-methanone] |  | 661 nM |  | 191 nM | 4900 nM | 
4 | CCCC1(C(=O)c2ccc(Cl)c(Oc3ccccc3F)c2)CCNC1 (stereo not drawn) [Compound 17, [4-Chloro-3-(2-fluoro-phenoxy)-phenyl]-(3-propyl-pyrrolidin-3-yl)-methanone] | 47.9 nM |  |  |  | 24 nM | 15.8 nM
5 | CCCC1(C(=O)c2ccc(Cl)c(Oc3ccc(F)cc3)c2)CCNC1 (stereo not drawn) [Compound 18, [4-Chloro-3-(4-fluoro-phenoxy)-phenyl]-(3-propyl-pyrrolidin-3-yl)-methanone] | 24 nM |  |  |  | 15.1 nM | 16.6 nM
6 | CCC1(C(=O)c2ccc(Cl)c(Oc3ccccc3)c2)CCNC1 (stereo not drawn) [Compound 19, (4-Chloro-3-phenoxy-phenyl)-(3-ethyl-pyrrolidin-3-yl)-methanone] | 57.5 nM |  |  |  | 26.3 nM | 7.59 nM
7 | CC(C)CC[C@@]1(C(=O)c2cc(F)c(N)c(Cl)c2)CCNC1 [Compound 21, (4-Amino-3-chloro-5-fluoro-phenyl)-[(R)-3-(3-methyl-butyl)-pyrrolidin-3-yl]-methanone] | 3.31 nM |  |  |  | 1.91 nM | 1.51 nM
8 | CC(C)CC[C@]1(C(=O)c2cc(F)c(N)c(Cl)c2)CCNC1 [Compound 22, (4-Amino-3-chloro-5-fluoro-phenyl)-[(S)-3-(3-methyl-butyl)-pyrrolidin-3-yl]-methanone] |  |  | 33.1 nM | 132 nM |  | 83.2 nM
9 | CC(C)C[C@@]1(C(=O)c2cc(F)c(N)c(Cl)c2)CCNC1 [Compound 23] | 4.79 nM |  |  |  | 3.98 nM | 6.17 nM
10 | CC(C)(C)CC[C@]1(C(=O)c2cc(F)c(N)c(Cl)c2)CCNC1 [Compound 25, (4-Amino-3-chloro-5-fluoro-phenyl)-[(S)-3-(3,3-dimethyl-butyl)-pyrrolidin-3-yl]-methanone] | 1.74 nM |  |  |  | 0.977 nM | 0.55 nM
11 | CC(C)(C)CC[C@@]1(C(=O)c2cc(F)c(N)c(Cl)c2)CCNC1 [Compound 26, (4-Amino-3-chloro-5-fluoro-phenyl)-[(R)-3-(3,3-dimethyl-butyl)-pyrrolidin-3-yl]-methanone] | 75.9 nM |  |  |  | 25.1 nM | 26.9 nM
12 | CC(C)C[C@@]1(C(=O)c2ccc(N)c(Cl)c2)CCNC1 [Compound 27, (4-Amino-3-chloro-phenyl)-((R)-3-isobutyl-pyrrolidin-3-yl)-methanone] | 8.32 nM | 174 nM | 55 nM |  |  | 
13 | CC(C)C[C@]1(C(=O)c2ccc(N)c(Cl)c2)CCNC1 [Compound 28, (4-Amino-3-chloro-phenyl)-((S)-3-isobutyl-pyrrolidin-3-yl)-methanone] | 0.117 nM |  |  |  | 3.02 nM | 0.832 nM
14 | CC(C)CC1(C(=O)c2ccc(Cl)c(Oc3ccccc3)c2)CCNC1 (stereo not drawn) [Compound 31, (4-Chloro-3-phenoxy-phenyl)-(3-isobutyl-pyrrolidin-3-yl)-methanone] | 3.72 nM |  |  |  | 1.91 nM | 26.3 nM
15 | CCCC1(C(=O)c2ccc(Cl)c(Oc3ccc(C(F)(F)F)cc3)c2)CCNC1 (stereo not drawn) [Compound 32, [4-Chloro-3-(4-trifluoromethyl-phenoxy)-phenyl]-(3-propyl-pyrrolidin-3-yl)-methanone] |  | 331 nM |  | 166 nM | 200 nM | 
16 | CC1(CC2(C(=O)c3ccc(Cl)c(Cl)c3)CCNCC2)CC1 [Compound 34, (3,4-Dichloro-phenyl)-[4-(1-methyl-cyclopropylmethyl)-piperidin-4-yl]-methanone] |  | 2.24 nM |  | 0.501 nM | 66.1 nM | 
17 | Cc1ccc(C(=O)C2(CC(C)C)CCNCC2)cc1Cl [Compound 35, (3-Chloro-4-methyl-phenyl)-(4-isobutyl-piperidin-4-yl)-methanone] |  | 10.5 nM |  | 0.589 nM | 45.7 nM | 
18 | CCCC1(C(=O)c2ccc3ccccc3c2)CCNCC1 [Compound 36, Naphthalen-2-yl-(4-propyl-piperidin-4-yl)-methanone] | 0.102 nM |  |  |  | 15.8 nM | 9.12 nM
19 | COC(C)(C)CC1(C(=O)c2ccc(Cl)c(Cl)c2)CCNCC1 [Compound 37, (3,4-Dichloro-phenyl)-[4-(2-methoxy-2-methyl-propyl)-piperidin-4-yl]-methanone] |  | 4.79 nM |  | 1.12 nM | 105 nM | 
20 | Cc1ccc(C(=O)C2(CCC(C)C)CCNCC2)cc1Cl [Compound 38, (3-Chloro-4-methyl-phenyl)-[4-(3-methyl-butyl)-piperidin-4-yl]-methanone] |  | 14.8 nM |  | 3.47 nM | 135 nM | 
21 | O=C(c1ccc(Cl)c(Cl)c1)C1(CC2CCCC2)CCNCC1 [Compound 39, (4-Cyclopentylmethyl-piperidin-4-yl)-(3,4-dichloro-phenyl)-methanone] |  | 3.16 nM |  | 1.48 nM | 41.7 nM | 
22 | CCCC1(C(=O)c2ccc(Cl)cc2Oc2ccccc2)CCNCC1 [Compound 40, (4-Chloro-2-phenoxy-phenyl)-(4-propyl-piperidin-4-yl)-methanone] |  | 1480 nM |  | 69.2 nM | 27.5 nM | 
23 | O=C(c1ccc(Cl)c(Cl)c1)C1(CC2CCOCC2)CCNCC1 [Compound 41, (3,4-Dichloro-phenyl)-[4-(tetrahydro-pyran-4-ylmethyl)-piperidin-4-yl]-methanone] |  | 7.94 nM |  | 1.15 nM | 209 nM | 
